In patent US9382295B2, “Cyclic depsipeptide compounds and their uses” (Cypralis Limited, priority 2012, dated 2016):
Like-named read-outs stand apart in the source and are kept apart here.

Experiments:
cyclophilin A (Cyp A) = target: T1, cyclophilin A (Cyp A) (Homo sapiens, UniProt P62937); assay: Protease-free PPIase assay, cyclophilin A; type: biochemical
T1 construct: purchased Sigma C3805
Outline: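 Protease-free cis-trans isomerisation: 2 nM recombinant human cyclophilin A with 60 μM succinimide-peptide substrate in 35 mM HEPES pH 7.8 plus DTT, at 10.0 °C, max 0.5% DMSO. Absorbance at 330 nm was fitted to first-order kinetics, background subtracted, and catalytic rates versus inhibitor concentration gave Ki.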

[1] = Rat pharmacokinetics, iv and po dosing, whole blood and plasma; type: in vivo; settings: for AUC(0-inf) / AUC(0-t) / Cmax / half-life / clearance / Vd / bioavailability / Tmax: mean; for half-life: read-out: half-life (T1/2) (converted); for clearance: read-out: systemic clearance (converted); for Vd: read-out: volume of distribution at the terminal phase; for bioavailability: po 10 mg/kg vs iv 1 mg/kg
Description: Rat pharmacokinetic data was obtained for example 2, following iv dosing at 1 mg/kg and po dosing at 10 mg/kg and individual analysis of plasma and whole blood samples at various time points was carried out.

[2] = Water solubility assay (pH 7.8 buffer); type: physicochemical; settings: pH 7.8
Outline: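 DMSO stocks were diluted into 35 mM HEPES pH 7.8 to final 0–100 μM with 1% DMSO, in triplicate. Plates were shaken 18 h at 25 °C, then precipitation was detected as increased absorbance at 650 nm. Values give the concentration (μM) at which the compound remains in solution.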

cyclophilin D (Cyp D) = cyclophilin D (Cyp D) (Homo sapiens, UniProt P30405); assay: Protease-free PPIase assay, cyclophilin D; type: biochemical
cyclophilin D (Cyp D), sequence (P30405 30-207): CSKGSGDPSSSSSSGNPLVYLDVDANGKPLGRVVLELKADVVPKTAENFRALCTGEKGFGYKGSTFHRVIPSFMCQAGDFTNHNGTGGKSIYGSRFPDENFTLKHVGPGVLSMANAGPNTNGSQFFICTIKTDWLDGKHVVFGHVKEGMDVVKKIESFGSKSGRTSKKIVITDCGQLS
Outline: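 Cis-trans isomerization of a succinimide-peptide substrate (60 µM final) by 2 nM enzyme was followed at 330 nm in 35 mM HEPES pH 7.8 with 50 µM DTT, stirred at 10.0 °C, DMSO ≤0.5%. First-order rate constants minus background were fitted against inhibitor concentration to give Ki.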

T1 sequence (P62937 whole entry): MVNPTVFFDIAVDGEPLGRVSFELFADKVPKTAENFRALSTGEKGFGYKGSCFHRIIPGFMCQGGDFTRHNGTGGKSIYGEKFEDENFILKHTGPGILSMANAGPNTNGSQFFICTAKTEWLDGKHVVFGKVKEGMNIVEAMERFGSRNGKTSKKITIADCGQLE

SMILES: CC(C)CC1NC(=O)[C@H](CC(C)C)N(C)C(=O)CN(C)C(=O)C([C@@H](C)O)NC(=O)C([C@H](O)[C@H](C)CCN2CCOCC2)N(C)C(=O)C(C(C)C)N(C)C(=O)C(CC(C)C)NC(=O)C(CC(C)C)N(C)C(=O)C(C(C)C)OC(=O)C(C)NC(=O)C(CC(C)C)N(C)C1=O (stereo in doubt) [Example 2, cyclo-[(3R,4R,5S)-4-(hydroxy)-3-methyl-5-(methylamino)-1-N-morpholino-hexanoic acid-Thr-Sar-MeLeu-Leu-MeLeu-Ala-D-Hiv-MeLeu-Leu-MeVal]]
- Ki (cyclophilin A (Cyp A)): 9.2 nM
- blood plasma ratio ([1]; intravenous, 1 mg/kg, from volumes of distribution in plasma and whole blood, read-out: difference in blood to plasma ratio): ~3
- systemic clearance relative to hepatic blood flow in rats (3.31 L/hr/kg) ([1]; plasma, iv 1 mg/kg): 1.26 fold
- volume of distribution relative to total body water (0.67 L/kg) in rats ([1]; plasma, iv 1 mg/kg): 44.69 fold
- AUC(0-inf) ([1]; plasma, iv 1 mg/kg): 239 ng·h/mL
- AUC(0-t) ([1]; plasma, iv 1 mg/kg): 197 ng·h/mL
- Cmax ([1]; plasma, iv 1 mg/kg): 275 ng/mL
- half-life ([1]; plasma, iv 1 mg/kg): 4.96 h
- clearance ([1]; plasma, iv 1 mg/kg): 69.7 mL/min/kg
- Vd ([1]; plasma, iv 1 mg/kg): 29.9 L/kg
- bioavailability ([1]; plasma): 95.9%
- AUC(0-inf) ([1]; plasma, po 10 mg/kg): 2290 ng·h/mL
- AUC(0-t) ([1]; plasma, po 10 mg/kg): 2250 ng·h/mL
- Tmax ([1]; plasma, po 10 mg/kg): 2 h
- Cmax ([1]; plasma, po 10 mg/kg, read-out: Cmax): 328 ng/mL
- half-life ([1]; plasma, po 10 mg/kg): 4.4 h
- systemic clearance as share of hepatic blood flow in rats (3.31 L/hr/kg) ([1]; whole blood, iv 1 mg/kg): 35.0%
- volume of distribution relative to total body water (0.67 L/kg) in rats ([1]; whole blood, iv 1 mg/kg): 15.40 fold
- AUC(0-inf) ([1]; whole blood, iv 1 mg/kg): 859 ng·h/mL
- AUC(0-t) ([1]; whole blood, iv 1 mg/kg): 827 ng·h/mL
- Cmax ([1]; whole blood, iv 1 mg/kg): 643 ng/mL
- half-life ([1]; whole blood, iv 1 mg/kg): 6.14 h
- clearance ([1]; whole blood, iv 1 mg/kg): 19.3 mL/min/kg
- Vd ([1]; whole blood, iv 1 mg/kg): 10.3 L/kg
- bioavailability ([1]; whole blood): 70.1%
- AUC(0-inf) ([1]; whole blood, po 10 mg/kg): 6020 ng·h/mL
- AUC(0-t) ([1]; whole blood, po 10 mg/kg): 5930 ng·h/mL
- Tmax ([1]; whole blood, po 10 mg/kg): 2 h
- Cmax ([1]; whole blood, po 10 mg/kg, read-out: Cmax): 678 ng/mL
- half-life ([1]; whole blood, po 10 mg/kg): 4.03 h
- solubility at 18 h [2]: > 100 µM
- Ki (cyclophilin D (Cyp D)): 6.5 nM
